# Assay results reported in ChEMBL document CHEMBL4342418, “1,2,3-Triazole-containing hybrids as potential anticancer agents: Current developments, action mechanisms and structure-activity relationships” (Eur J Med Chem, 2019).
# Legend:
# [1] = tested on: HepG2; test: Antiproliferative activity against human HepG2 cells by MTT assay; assay type: functional, cell-based
# [2] = tested on: KB; test: Antiproliferative activity against human KB cells by MTT assay; assay type: functional, cell-based
# [3] = tested on: MCF7; test: cells; assay type: functional, cell-based; details: Homo sapiens
# Description: Antiproliferative activity against human MCF7 cells by MTT assay
# [4] = tested on: MDA-MB-231; test: Antiproliferative activity against human MDA-MB-231 cells by MTT assay; assay type: functional, cell-based
# [5] = tested on: T47D; test: Antiproliferative activity against human T47D cells by MTT assay; assay type: functional, cell-based
# [6] = tested on: MCF7; test: Antiproliferative activity against human MCF7 cells assessed as reduction in cell viability after 48 hrs by SRB assay; assay type: functional, cell-based; details: MCF7, 48 h
# [7] = tested on: HeLa; test: Antiproliferative activity against human HeLa cells assessed as reduction in cell viability after 48 hrs by SRB assay; assay type: functional
# [8] = tested on: HepG2; test: Antiproliferative activity against human HepG2 cells assessed as reduction in cell viability after 48 hrs by SRB assay; assay type: functional; details: HepG2, 48 h
# [9] = tested on: IMR-32; test: Antiproliferative activity against human IMR32 cells assessed as reduction in cell viability after 48 hrs by SRB assay; assay type: functional; details: IMR-32, 48 h
# [10] = tested on: A549; test: cells; assay type: functional, cell-based; details: Homo sapiens
# Description: Antiproliferative activity against human A549 cells by MTT assay
# [11] = tested on: HBL-100; test: Antiproliferative activity against human HBL100 cells by MTT assay; assay type: functional, cell-based
# [12] = tested on: HeLa; test: Antiproliferative activity against human HeLa cells by MTT assay; assay type: functional, cell-based
# [13] = tested on: SW1573; test: Antiproliferative activity against human SW1573 cells by MTT assay; assay type: functional, cell-based
# [14] = tested on: WiDr; test: Antiproliferative activity against human WiDr cells by MTT assay; assay type: functional, cell-based
# [15] = tested on: K562; test: Antiproliferative activity against human K562 cells assessed as reduction in cell viability after 24 hrs by MTT assay; assay type: functional, cell-based; details: K562, 24 h
# [16] = tested on: PC-3; test: Antiproliferative activity against human PC3 cells assessed as reduction in cell viability after 24 hrs by MTT assay; assay type: functional, cell-based; details: PC-3, 24 h
# [17] = tested on: A-431; test: Antiproliferative activity against human A431 cells assessed as reduction in cell viability after 24 hrs by MTT assay; assay type: functional, cell-based; details: A-431, 24 h
# [18] = tested on: MDA-MB-231; test: Antiproliferative activity against human MDA-MB-231 cells assessed as reduction in cell viability after 24 hrs by MTT assay; assay type: functional, cell-based; details: MDA-MB-231, 24 h
# [19] = tested on: COLO 205; test: Antiproliferative activity against human COLO205 cells assessed as reduction in cell viability after 24 hrs by MTT assay; assay type: functional, cell-based; details: COLO 205, 24 h
# [20] = tested on: A549; test: Antiproliferative activity against human A549 cells assessed as reduction in cell viability after 24 hrs by MTT assay; assay type: functional, cell-based; details: A549, 24 h
SMILES,IC50 [5],GI50 [6],GI50 [7],GI50 [8],GI50 [9],IC50 [10],IC50 [11],IC50 [12],IC50 [13],IC50 [14],also measured
O=C(NCc1cn(CC(O)Cn2c3c(c4ccccc4c2=O)C(=O)c2ccccc2-3)nn1)c1ccc(Br)cc1 (stereo unspecified),–,–,–,–,–,–,–,–,–,–,IC50 [1]: 0.76 µM; IC50 [2]: 0.79 µM
COc1ccc(Cn2cc(Cn3c4ccccc4c(=O)c4cc(OC)ccc43)nn2)cc1,11 to 16.6 µM,–,–,–,–,–,–,–,–,–,IC50 [3]: 11 to 16.6 µM; IC50 [4]: 11 to 16.6 µM
Cc1ccc(-c2c(OCc3cn(Cc4ccc([N+](=O)[O-])cc4)nn3)cnn2-c2ccc(F)cc2)cc1,–,1.8 to 9.7 µM,1.8 to 9.7 µM,1.8 to 9.7 µM,1.8 to 9.7 µM,–,–,–,–,–,–
COC(=O)c1coc([C@H](Cc2ccccc2)n2cc(CC3CC(CCc4ccccc4)CC(O[Si](C)(C)C(C)(C)C)C3)nn2)n1 (stereo partly specified),3.1 to 88 µM,–,–,–,–,3.1 to 88 µM,3.1 to 88 µM,3.1 to 88 µM,3.1 to 88 µM,3.1 to 88 µM,–
Cc1cn([C@H]2C[C@H](n3cc(CCOC(=O)CCC(=O)O[C@@H]4O[C@@H]5O[C@@]6(C)CC[C@H]7[C@H](C)CC[C@@H]([C@H]4C)[C@@]57OO6)nn3)[C@@H](CO)O2)c(=O)[nH]c1=O,–,–,–,–,–,–,–,–,–,–,IC50 [1]: 44.3 µM; IC50 [2]: 16.5 µM
Cc1ccc(-c2c(OCc3cn(Cc4ccccc4Br)nn3)cnn2-c2ccc(F)cc2)cc1,–,1.8 to 9.7 µM,1.8 to 9.7 µM,1.8 to 9.7 µM,1.8 to 9.7 µM,–,–,–,–,–,–
COC(=O)c1coc(Cn2cc(CC3CC(O[Si](C)(C)C(C)(C)C)CC(C(C)C)C3)nn2)n1 (stereo unspecified),3.1 to 88 µM,–,–,–,–,3.1 to 88 µM,3.1 to 88 µM,3.1 to 88 µM,3.1 to 88 µM,3.1 to 88 µM,–
Cc1ccc(-c2c(OCc3cn(Cc4ccccc4Cl)nn3)cnn2-c2ccc(F)cc2)cc1,–,1.8 to 9.7 µM,1.8 to 9.7 µM,1.8 to 9.7 µM,1.8 to 9.7 µM,–,–,–,–,–,–
Cc1c(C(=O)Nc2ccccc2)nnn1-c1ccnc2cc(Cl)ccc12,–,–,–,–,–,–,–,–,–,–,IC50 [3]: 31.7 µM; IC50 [4]: 19.1 µM
CC(=O)c1cccc(-n2cc(CO[C@H]3O[C@@H]4O[C@@]5(C)O[C@]46[C@@H](CC[C@@H](C)[C@@H]6C[C@H]5O)[C@H]3C)nn2)c1,–,–,–,–,–,–,–,–,–,–,IC50 [15]: 4.06 to 89.9 µM; IC50 [16]: 4.06 to 89.9 µM; IC50 [17]: 4.06 to 89.9 µM; IC50 [18]: 4.06 to 89.9 µM; IC50 [19]: 4.06 to 89.9 µM; IC50 [20]: 4.06 to 89.9 µM
C=CCC1CC(Cc2cn([C@H](c3nc(C(=O)OC)co3)C(C)CC)nn2)CC(O[Si](C)(C)C(C)(C)C)C1 (stereo partly specified),3.1 to 88 µM,–,–,–,–,3.1 to 88 µM,3.1 to 88 µM,3.1 to 88 µM,3.1 to 88 µM,3.1 to 88 µM,–
C=C(C)[C@@H]1CC[C@]2(COC(=O)/C=C/C(=O)OCc3cn([C@H]4C[C@H](n5ccc(=O)[nH]c5=O)O[C@@H]4CO)nn3)CC[C@]3(C)[C@H](CC[C@@H]4[C@@]5(C)CC[C@H](O)C(C)(C)[C@@H]5CC[C@]43C)C12 (stereo partly specified),–,–,–,–,–,–,–,–,–,–,IC50 [1]: 1.3 µM; IC50 [2]: 0.3 µM
COc1ccc(Cn2cc(COc3cnn(-c4ccc(F)cc4)c3-c3ccc(C)cc3)nn2)cc1,–,1.8 to 9.7 µM,1.8 to 9.7 µM,1.8 to 9.7 µM,1.8 to 9.7 µM,–,–,–,–,–,–
COc1ccc(Cn2cc(COc3cnn(-c4ccc(C)cc4)c3)nn2)cc1,–,1.8 to 9.7 µM,1.8 to 9.7 µM,1.8 to 9.7 µM,1.8 to 9.7 µM,–,–,–,–,–,–
CCC(C)[C@@H](c1nc(C(=O)OC)co1)n1cc(CC2CC(O[Si](C)(C)C(C)(C)C)CC(C(C)C)C2)nn1 (stereo partly specified),3.1 to 88 µM,–,–,–,–,3.1 to 88 µM,3.1 to 88 µM,3.1 to 88 µM,3.1 to 88 µM,3.1 to 88 µM,–
Cc1ccc(-n2cc(OCc3cn(Cc4ccccc4Br)nn3)cn2)cc1,–,1.8 to 9.7 µM,1.8 to 9.7 µM,1.8 to 9.7 µM,1.8 to 9.7 µM,–,–,–,–,–,–

SMILES,IC50 [5],GI50 [6],GI50 [7],GI50 [8],GI50 [9],IC50 [10],IC50 [11],IC50 [12],IC50 [13],IC50 [14],also measured
O=[N+]([O-])c1ccc(Cn2cc(COc3cnn(-c4ccccc4)c3-c3ccccc3)nn2)cc1,–,1.8 to 9.7 µM,1.8 to 9.7 µM,1.8 to 9.7 µM,1.8 to 9.7 µM,–,–,–,–,–,–
COC(=O)c1coc([C@H](Cc2ccccc2)n2cc(CC3CC(O[Si](C)(C)C(C)(C)C)CC(C(C)C)C3)nn2)n1 (stereo partly specified),3.1 to 88 µM,–,–,–,–,3.1 to 88 µM,3.1 to 88 µM,3.1 to 88 µM,3.1 to 88 µM,3.1 to 88 µM,–
CC(=O)c1ccc(-n2cc(CO[C@H]3O[C@@H]4O[C@@]5(C)O[C@]46[C@@H](CC[C@@H](C)[C@@H]6C[C@H]5O)[C@H]3C)nn2)cc1,–,–,–,–,–,–,–,–,–,–,IC50 [15]: 4.06 to 89.9 µM; IC50 [16]: 4.06 to 89.9 µM; IC50 [17]: 4.06 to 89.9 µM; IC50 [18]: 4.06 to 89.9 µM; IC50 [19]: 4.06 to 89.9 µM; IC50 [20]: 4.06 to 89.9 µM
COC(=O)c1coc(Cn2cc(CC3CC(CCc4ccccc4)CC(O[Si](C)(C)C(C)(C)C)C3)nn2)n1 (stereo unspecified),3.1 to 88 µM,–,–,–,–,3.1 to 88 µM,3.1 to 88 µM,3.1 to 88 µM,3.1 to 88 µM,3.1 to 88 µM,–
Fc1ccc(-n2ncc(OCc3cn(Cc4cccc(Cl)c4)nn3)c2-c2ccc(Cl)cc2)cc1,–,1.8 to 9.7 µM,1.8 to 9.7 µM,1.8 to 9.7 µM,1.8 to 9.7 µM,–,–,–,–,–,–
CCC(C)[C@@H](c1nc(C(=O)OC)co1)n1cc(CC2CC(CCc3ccccc3)CC(O[Si](C)(C)C(C)(C)C)C2)nn1 (stereo partly specified),3.1 to 88 µM,–,–,–,–,3.1 to 88 µM,3.1 to 88 µM,3.1 to 88 µM,3.1 to 88 µM,3.1 to 88 µM,–
Cc1ccc(-n2cc(OCc3cn(Cc4ccccc4Cl)nn3)cn2)cc1,–,1.8 to 9.7 µM,1.8 to 9.7 µM,1.8 to 9.7 µM,1.8 to 9.7 µM,–,–,–,–,–,–
Fc1ccc(-n2ncc(OCc3cn(Cc4ccccc4)nn3)c2-c2ccc(Cl)cc2)cc1,–,1.8 to 3.8 µM,1.8 to 3.8 µM,1.8 to 3.8 µM,1.8 to 3.8 µM,–,–,–,–,–,–
CCCC1CC(Cc2cn(Cc3nc(C(=O)OC)co3)nn2)CC(O[Si](C)(C)C(C)(C)C)C1 (stereo unspecified),3.1 to 88 µM,–,–,–,–,3.1 to 88 µM,3.1 to 88 µM,3.1 to 88 µM,3.1 to 88 µM,3.1 to 88 µM,–
CCCC1CC(Cc2cn([C@H](c3nc(C(=O)OC)co3)C(C)CC)nn2)CC(O[Si](C)(C)C(C)(C)C)C1 (stereo partly specified),3.1 to 88 µM,–,–,–,–,3.1 to 88 µM,3.1 to 88 µM,3.1 to 88 µM,3.1 to 88 µM,3.1 to 88 µM,–
C[C@H]1[C@@H](OCc2cn(-c3ccc(C#N)cc3)nn2)O[C@@H]2O[C@@]3(C)O[C@]24[C@H]1CC[C@@H](C)[C@@H]4C[C@H]3O,–,–,–,–,–,–,–,–,–,–,IC50 [15]: 4.06 to 89.9 µM; IC50 [16]: 4.06 to 89.9 µM; IC50 [17]: 4.06 to 89.9 µM; IC50 [18]: 4.06 to 89.9 µM; IC50 [19]: 4.06 to 89.9 µM; IC50 [20]: 4.06 to 89.9 µM
O=[N+]([O-])c1ccc(Cn2cc(COc3cnn(-c4ccc(F)cc4)c3-c3ccc(Cl)cc3)nn2)cc1,–,1.8 to 9.7 µM,1.8 to 9.7 µM,1.8 to 9.7 µM,1.8 to 9.7 µM,–,–,–,–,–,–
CCCC1CC(Cc2cn([C@@H](Cc3ccccc3)c3nc(C(=O)OC)co3)nn2)CC(O[Si](C)(C)C(C)(C)C)C1 (stereo partly specified),3.1 to 88 µM,–,–,–,–,3.1 to 88 µM,3.1 to 88 µM,3.1 to 88 µM,3.1 to 88 µM,3.1 to 88 µM,–
C[C@@H]1CC[C@H]2[C@@H](C)C(=O)O[C@@H]3O[C@@]4(C)CC[C@@H]1[C@]32OO4 [ARTEMISININ],–,–,–,–,–,–,–,–,–,–,IC50 [15]: 39 to 68.8 µM; IC50 [16]: 39 to 68.8 µM; IC50 [17]: 39 to 68.8 µM; IC50 [18]: 39 to 68.8 µM; IC50 [19]: 39 to 68.8 µM; IC50 [20]: 39 to 68.8 µM
C[C@H]1[C@H](OC(=O)CCC(=O)O)O[C@@H]2O[C@@]3(C)CC[C@H]4[C@H](C)CC[C@@H]1[C@@]24OO3 [ARTESUNATE],–,–,–,–,–,–,–,–,–,–,IC50 [1]: 59.4 µM; IC50 [2]: 78.5 µM
